Laboratory results published in patent publication EP1184030A1, “Antibacterial composition comprising trimethylnorbornanylcyclohexanol derivatives” (Givaudan SA, priority 2000, dated 2002).
≈ marks a conversion by molar mass, not a printed value. Where two headings read alike, the source gives them in different places. Each block holds one compound with its values, some of them ahead of it.

How the values were obtained:
[1] = test system: Staphylococcus epidermidis Ax25; assay: MIC microtiter plate test, axilla bacteria; assay type: cell-based; settings: for MIC: Staphylococcus epidermidis, AX25
Source text: (§1) The different bacterial strains had been isolated from the human axilla by current microbiological practice. They were taxonomically identified by cell morphology, gram-reaction and biochemical tests included in the Api coryne test kit (BioMerieux, France). Strain Staphylococcus epidermidis Ax25 was identified by fatty acid methyl ester analysis (FAME; German type strain collection DSMZ, Germany). The strains were maintained on Tryptic soy broth plates, this standard medium being amended with 5 g per Litre of Tween 80 and 1 g of Soybean lecithin. Plates were incubated at 36° C for a period 48 hours. The bacteria were then swabbed from the plates and suspended in 4 ml of Müller-Hinton broth amended with 100 mg of Tween80 per Litre (MH-Tween) and incubated again at 36° C for 16 hours. Following incubation the bacterial suspensions were diluted in MH-Tween to obtain a final cell density of 10^6 colony forming units per ml. For each fragrance material four microtiter plates were used in the example, each microtiter plate having 8 rows, A-H, and 12 columns, 1-12. To each column a diluted suspension of a different test organism was distributed, 100 µl per well. 1% stock solutions of the fragrance materials were then prepared in MH-Tween broth. The fragrance material was dispersed by ultrasonication into the aqueous medium to obtain a homogenous emulsion. 100 µl per well of this emulsion was then added to the first row of the microtiter plates already containing the target organisms. Serial dilution series were then prepared starting at row A and continuing until row G, each time removing 100 µl from a well and transferring it to the next well. In this way fragrance concentrations of 0.5%, 0.25%, 0.125%, 0.0625%, 0.03125%, 0.0156% and 0.0078% were tested for their antibacterial efficacy. The reference compound Triclosan was tested at 16 fold lower concentrations. The plates were covered with plastic films and incubated for 24 h at 36° C with shaking at 250 rpm. The turbidity developing in the microtiter plates was then examined after 24 h to determine microbial growth. The minimal concentration of fragrance inhibiting the growth of an organism by at least 80% was determined as the minimal inhibitory concentration (MIC).
(§2) Ax 25 was identified as Staphylococcus epidermidis by FAME analysis. Identification with the Api Coryne test kit yielded the following species assignments for the remainder of the strains: Ax 26 Corynebacterium sp.; Ax 3 Corynebacterium bovis; Ax 7 Corynebacterium group G; Ax 10 Corynebacterium jeikeium; Ax 11 Corynebacterium jeikeium; Ax 12 Corynebacterium jeikeium; Ax 15 Corynebacterium jeikeium; Ax 20 Corynebacterium striatum/amycolatum; Ax 19 Corynebacterium jeikeium. The strains were isolated from the axilla of 8 human volunteers. Based on biochemical tests and colony morphology all strains were distinct from each other, even the several strains all belonging to Corynebacterium jeikeium.

[2] = test system: Ax 7 Corynebacterium group G; assay: MIC microtiter plate test, axilla bacteria; assay type: cell-based; settings: for MIC: Corynebacterium
Source text: as §1, §2

[3] = test system: Ax 15 Corynebacterium jeikeium; assay: MIC microtiter plate test, axilla bacteria; assay type: cell-based; settings: for MIC: Corynebacterium jeikeium
Source text: as §1, §2

Vapour pressure = assay type: physicochemical
Source text: Odoriferous substances are by definition volatile compounds which evaporate from the skin and therefore loose their deodorising effect. Furthermore small water-soluble fragrance compounds can get dissolved in sweat and are thus rapidly diluted under conditions of high sweat secretion which further reduces the duration of the deodorising effect. Therefore a low water solubility indicated by a high LogP value and a low volatility indicated by low vapour pressure are desired for odoriferous substances which are used for their antibacterial activity.

[4] = test system: Ax 11 Corynebacterium jeikeium; assay: MIC microtiter plate test, axilla bacteria; assay type: cell-based; settings: Ax11, growth inhibition by at least 80%, 24 h at 36° C
Source text: as §1, §2

[5] = test system: Ax 10 Corynebacterium jeikeium; assay: MIC microtiter plate test, axilla bacteria; assay type: cell-based; settings: Ax10, growth inhibition by at least 80%, 24 h at 36° C
Source text: as §1, §2

[6] = test system: Ax 20 Corynebacterium striatum/amycolatum; assay: MIC microtiter plate test, axilla bacteria; assay type: cell-based; settings: Ax20, growth inhibition by at least 80%, 24 h at 36° C
Source text: as §1, §2

[7] = test system: Ax 3 Corynebacterium bovis; assay: MIC microtiter plate test, axilla bacteria; assay type: cell-based; settings: Ax3, growth inhibition by at least 80%, 24 h at 36° C
Source text: as §1, §2

[8] = test system: Ax 26 Corynebacterium sp.; assay: MIC microtiter plate test, axilla bacteria; assay type: cell-based; settings: for MIC: Corynebacterium
Source text: as §1, §2

[9] = test system: Ax 12 Corynebacterium jeikeium; assay: MIC microtiter plate test, axilla bacteria; assay type: cell-based; settings: Ax12, growth inhibition by at least 80%, 24 h at 36° C
Source text: as §1, §2

Corynebacteria = assay: MIC microtiter plate test, Corynebacteria; assay type: cell-based
Source text: The different bacterial strains had been isolated from the human axilla by current microbiological practice. They were taxonomically identified by cell morphology, gram-reaction and biochemical tests included in the Api coryne test kit (BioMerieux, France). Strain Staphylococcus epidermidis Ax25 was identified by fatty acid methyl ester analysis (FAME; German type strain collection DSMZ, Germany). The strains were maintained on Tryptic soy broth plates, this standard medium being amended with 5 g per Litre of Tween 80 and 1 g of Soybean lecithin. Plates were incubated at 36° C for a period 48 hours. The bacteria were then swabbed from the plates and suspended in 4 ml of Müller-Hinton broth amended with 100 mg of Tween80 per Litre (MH-Tween) and incubated again at 36° C for 16 hours. Following incubation the bacterial suspensions were diluted in MH-Tween to obtain a final cell density of 10^6 colony forming units per ml. For each fragrance material four microtiter plates were used in the example, each microtiter plate having 8 rows, A-H, and 12 columns, 1-12. […]
Since sandela is known to be a mixture of different reaction products, commercial sandela was subjected to a distillation process. […] The different fractions were evaluated for their antimicrobial activity (Table 6) with the method described in example 1. […]

[10] = Ax 25, growth inhibition by at least 80%, 24 h at 36° C
[11] = Ax7, growth inhibition by at least 80%, 24 h at 36° C
[12] = Ax15, growth inhibition by at least 80%, 24 h at 36° C
[13] = Corynebacterium jeikeium, read-out: Minimal inhibitory concentration (MIC)
[14] = Table 8, S. epidermidis, 24 hours
[15] = Table 8, Corynebact. Ax7, 24 hours
[16] = Table 8, Corynebact. Ax15, 24 hours
[17] = Table 7, S. epidermidis, 24 hours
[18] = Table 7, Corynebact. Ax7, 24 hours
[19] = Table 7, Corynebact. Ax15, 24 hours

SMILES: CCC(=CCC1CC=C(C)C1(C)C)CO (stereo not shown) [Radjanol]
- Minimal inhibitory concentration (MIC) [1, 10]: 0.1250 % weight/ volume
- Minimal inhibitory concentration (MIC) [2, 11]: 0.0625 % weight/ volume
- Minimal inhibitory concentration (MIC) [3, 12]: 0.125. % weight/ volume

SMILES: CC(C)=CCCC(C)=CCCC(C)=CCO [Farnesol, 3,7,11-trimethyl-2,6,10-dodecatrien-1-ol]
- vapour pressure (Vapour pressure): 1.35 µg/L
- MIC [4, 13]: 195 µg/mL (≈ 877 µM)
- MIC [5, 13]: 78 µg/mL (≈ 351 µM)
- MIC ([6]; Corynebacterium striatum, read-out: Minimal inhibitory concentration (MIC)): 137 µg/mL (≈ 616 µM)
- MIC ([1]; Ax 25, growth inhibition by at least 80%, 24 h at 36° C, read-out: Minimal inhibitory concentration (MIC)): 156 µg/mL (≈ 702 µM)
- MIC ([1]; Table 7, S. epidermidis, 24 hours, read-out: Bacteriostatic activity (concentration needed for at least 80% reduction in growth)): 156 µg/mL (≈ 702 µM)
- Bacteriostatic activity (concentration needed for at least 80% reduction in growth) [1, 14]: 0.0156 percent (w/v)
- MIC ([7]; Corynebacterium bovis, read-out: Minimal inhibitory concentration (MIC)): 156 µg/mL (≈ 702 µM)
- MIC ([2]; Ax7, growth inhibition by at least 80%, 24 h at 36° C, read-out: Minimal inhibitory concentration (MIC)): 137 µg/mL (≈ 616 µM)
- MIC ([2]; Table 7, Corynebact. Ax7, 24 hours, read-out: Bacteriostatic activity (concentration needed for at least 80% reduction in growth)): 137 µg/mL (≈ 616 µM)
- Bacteriostatic activity (concentration needed for at least 80% reduction in growth) [2, 15]: 0.0137 percent (w/v)
- MIC ([8]; Ax26, growth inhibition by at least 80%, 24 h at 36° C, read-out: Minimal inhibitory concentration (MIC)): 78 µg/mL (≈ 351 µM)
- MIC ([8]; Table 7, Corynebact. Ax26, 24 hours, read-out: Bacteriostatic activity (concentration needed for at least 80% reduction in growth)): 78 µg/mL (≈ 351 µM)
- Bacteriostatic activity (concentration needed for at least 80% reduction in growth) ([8]; Table 8, Corynebact. Ax26, 24 hours): 0.0078 percent (w/v)
- MIC ([3]; Ax15, growth inhibition by at least 80%, 24 h at 36° C, read-out: Minimal inhibitory concentration (MIC)): 156 µg/mL (≈ 702 µM)
- MIC ([3]; Table 7, Corynebact. Ax15, 24 hours, read-out: Bacteriostatic activity (concentration needed for at least 80% reduction in growth)): 156 µg/mL (≈ 702 µM)
- Bacteriostatic activity (concentration needed for at least 80% reduction in growth) [3, 16]: 0.0156 percent (w/v)
- MIC [9, 13]: 137 µg/mL (≈ 616 µM)

SMILES: COC1CCC(C2CC3CC2C(C)C3(C)C)CC1O (stereo not shown) [2-methoxy-5-(5,5,6-trimethyl-bicyclo[2.2.1]hept-2-yl)cyclohexan-1-ol]
- activity against Corynebacteria (Corynebacteria): highest activity

SMILES: COC1CC(C2CC3CC2C(C)C3(C)C)CCC1O (single isomer, unassigned; peak a) [Peak A]
- Bacteriostatic activity (concentration needed for at least 80% reduction in growth) [1, 17]: 0.0040 percent (w/v)
- Bacteriostatic activity (concentration needed for at least 80% reduction in growth) [1, 14]: 0.0040 percent (w/v)
- Bacteriostatic activity (concentration needed for at least 80% reduction in growth) [2, 18]: 0.0048 percent (w/v)
- Bacteriostatic activity (concentration needed for at least 80% reduction in growth) [2, 15]: 0.0048 percent (w/v)
- Bacteriostatic activity (concentration needed for at least 80% reduction in growth) [3, 19]: 0.0048 percent (w/v)
- Bacteriostatic activity (concentration needed for at least 80% reduction in growth) [3, 16]: 0.0048 percent (w/v)

SMILES: COC1CC(C2CC3CC2C(C)C3(C)C)CCC1O (single isomer, unassigned; peak b) [Peak B]
- Bacteriostatic activity (concentration needed for at least 80% reduction in growth) [1, 17]: 0.0023 percent (w/v)
- Bacteriostatic activity (concentration needed for at least 80% reduction in growth) [1, 14]: 0.0023 percent (w/v)
- Bacteriostatic activity (concentration needed for at least 80% reduction in growth) [2, 18]: 0.0028 percent (w/v)
- Bacteriostatic activity (concentration needed for at least 80% reduction in growth) [2, 15]: 0.0028 percent (w/v)
- Bacteriostatic activity (concentration needed for at least 80% reduction in growth) [3, 19]: 0.0028 percent (w/v)
- Bacteriostatic activity (concentration needed for at least 80% reduction in growth) [3, 16]: 0.0028 percent (w/v)

SMILES: COC1CC(C2CC3CC2C(C)C3(C)C)CCC1O (stereo not shown) [2-methoxy-4-(5,5,6-trimethylbicyclo[2.2.1]hept-2-yl)cyclohexan-1-ol]
- activity against Corynebacteria (Corynebacteria): highest activity

The remaining lines, values ahead:

- vapour pressure (Vapour pressure): about 2.2 µg/L
SMILES: CC1C2CC(CC2C2CCC(O)CC2)C1(C)C (stereo not shown) [4-(5,5,6-trimethylbicyclo[2.2.1]hept-2-yl)-cyclohexanol]

- Minimal inhibitory concentration (MIC) [4]: 0.2500 % weight/ volume
- Minimal inhibitory concentration (MIC) [5]: 0.2500 % weight/ volume
- Minimal inhibitory concentration (MIC) [6]: 0.1250 % weight/ volume
- Minimal inhibitory concentration (MIC) [1, 10]: 0.1250 % weight/ volume
- Minimal inhibitory concentration (MIC) [7]: 0.1250 % weight/ volume
- Minimal inhibitory concentration (MIC) [2, 11]: 0.1250 % weight/ volume
- Minimal inhibitory concentration (MIC) [3, 12]: 0.2500 % weight/ volume
- Minimal inhibitory concentration (MIC) [9]: 0.2500 % weight/ volume
SMILES: CC1=CCC(/C=C\C(C)C(C)O)C1(C)C (stereo not shown) [Ebanol]

- vapour pressure (Vapour pressure): about 2.2 µg/L
SMILES: CC1C2CC(CC2C2CCCC(O)C2)C1(C)C (stereo not shown) [3-(5,5,6-trimethylbicyclo[2.2.1]hept-2-yl)-cyclohexanol]

- vapour pressure (Vapour pressure): 109 µg/L
SMILES: C=CCc1ccc(O)c(OC)c1 [Eugenol]

- vapour pressure (Vapour pressure): about 2.2 µg/L
SMILES: CC1C2CC(CC2C2CCCCC2O)C1(C)C (stereo not shown) [2-(5,5,6-trimethylbicyclo[2.2.1]hept-2-yl)-cyclohexanol]

- Minimal inhibitory concentration (MIC) [4]: 0.1250 % weight/ volume
- Minimal inhibitory concentration (MIC) [5]: 0.1250 % weight/ volume
- Minimal inhibitory concentration (MIC) [6]: 0.1250 % weight/ volume
- Minimal inhibitory concentration (MIC) [1, 10]: 0.1250 % weight/ volume
- Minimal inhibitory concentration (MIC) [7]: 0.1250 % weight/ volume
- Minimal inhibitory concentration (MIC) [2, 11]: 0.1250 % weight/ volume
- Minimal inhibitory concentration (MIC) [3, 12]: 0.2500 % weight/ volume
- Minimal inhibitory concentration (MIC) [9]: 0.1250 % weight/ volume
SMILES: CC1=CCC(CCC(C)C(C)O)C1(C)C (stereo not shown) [Sandalore]
